Test results taken from paper PMC8112869, “Therapeutic inhibition of keratinocyte TRPV3 sensory channel by local anesthetic dyclonine” (eLife, 2021).

Molecular target: T1, mouse TRPV3 (Mus musculus, UniProt Q8K424)
T1 sequence (Q8K424 1-791): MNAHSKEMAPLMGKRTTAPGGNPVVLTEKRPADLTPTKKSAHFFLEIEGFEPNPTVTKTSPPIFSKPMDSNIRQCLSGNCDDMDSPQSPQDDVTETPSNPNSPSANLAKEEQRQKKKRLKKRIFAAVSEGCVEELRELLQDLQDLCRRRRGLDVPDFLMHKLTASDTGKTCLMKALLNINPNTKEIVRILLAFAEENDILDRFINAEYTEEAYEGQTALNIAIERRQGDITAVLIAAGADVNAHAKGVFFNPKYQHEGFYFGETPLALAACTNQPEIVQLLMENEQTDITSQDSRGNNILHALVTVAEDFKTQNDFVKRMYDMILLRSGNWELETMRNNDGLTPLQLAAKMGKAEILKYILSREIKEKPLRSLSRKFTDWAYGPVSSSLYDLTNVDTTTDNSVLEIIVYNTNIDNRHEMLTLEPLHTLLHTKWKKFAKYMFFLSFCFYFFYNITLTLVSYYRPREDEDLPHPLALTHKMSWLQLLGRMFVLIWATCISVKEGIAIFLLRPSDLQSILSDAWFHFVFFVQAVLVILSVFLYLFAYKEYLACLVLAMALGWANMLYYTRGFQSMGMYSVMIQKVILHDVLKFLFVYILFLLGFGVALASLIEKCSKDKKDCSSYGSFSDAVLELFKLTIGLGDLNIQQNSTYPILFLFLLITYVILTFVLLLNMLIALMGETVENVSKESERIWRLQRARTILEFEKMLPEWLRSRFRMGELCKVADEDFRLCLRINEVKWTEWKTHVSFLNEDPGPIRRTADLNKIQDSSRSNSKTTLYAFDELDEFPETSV
Assay: Voltage-step whole-cell recording of TRPV3 currents (40 μM 2-APB) in HEK 293T cells
Assay type: cell-based
Design: expressed in transfected cells; host or cells: HEK 293T
Conditions: steps –160 to +180 mV, dyclonine 10, 30 μM, RR 10 μM
Source text: Conventional whole-cell and excised patch-clamp recording methods were used. For the recombinant expressing system, green fluorescent EGFP was used as a surface marker for gene expression. Recording pipettes were pulled from borosilicate glass capillaries (World Precision Instruments) and fire-polished to a resistance between 2 and 4 MΩ when filled with internal solution containing (in mM) 140 CsCl, 2.0 MgCl2, 5 EGTA, and 10 HEPES, pH 7.4 (adjusted with CsOH). Bath solution contained (in mM): 140 NaCl, 5 KCl, 3 EGTA, and 10 HEPES, pH 7.4 adjusted with NaOH. For recordings in keratinocytes, the bath saline consisted of (in mM) 140 NaCl, 5 KCl, 2 MgCl2, 2 CaCl2, 10 glucoses, and 10 HEPES, pH 7.4 adjusted with NaOH, and the pipette solution contained (in mM) 140 CsCl, 5 EGTA, and 10 HEPES, pH 7.3 adjusted with CsOH. […] For a subset of recordings, currents were amplified using an Axopatch 200B amplifier (Molecular Devices, Sunnyvale, CA) and recorded through a BNC-2090/MIO acquisition system (National Instruments, Austin, TX) using QStudio developed by Dr. Feng Qin at State University of New York at Buffalo. […] As determined by the conductance tests, the solution around a patch under study was fully controlled by the application of a flow rate of 100 μl/min or greater. […]

SMILES: CCCCOc1ccc(C(=O)CCN2CCCCC2)cc1 [dyclonine]
- effect on TRPV3-mediated inward and outward currents (voltage dependence): the inhibition occurred independently of the membrane potential
